In article PMC9146934 (Membranes, 2022):
“And” between values parts separate entries of the source, which are not always exact repeats. Equal entries are not always repeated. Where two headings read alike, the source gives them in different places.

Experiments:
Am-RDL GABAr = target: T1, Am-RDL GABAr (Apis mellifera, UniProt A0A8U0Y4W2); assay: Two-electrode voltage-clamp of GABA-induced currents, Am-RDL expressed in Xenopus laevis oocytes; type: cell-based
T1 sequence (A0A8U0Y4W2 19-476): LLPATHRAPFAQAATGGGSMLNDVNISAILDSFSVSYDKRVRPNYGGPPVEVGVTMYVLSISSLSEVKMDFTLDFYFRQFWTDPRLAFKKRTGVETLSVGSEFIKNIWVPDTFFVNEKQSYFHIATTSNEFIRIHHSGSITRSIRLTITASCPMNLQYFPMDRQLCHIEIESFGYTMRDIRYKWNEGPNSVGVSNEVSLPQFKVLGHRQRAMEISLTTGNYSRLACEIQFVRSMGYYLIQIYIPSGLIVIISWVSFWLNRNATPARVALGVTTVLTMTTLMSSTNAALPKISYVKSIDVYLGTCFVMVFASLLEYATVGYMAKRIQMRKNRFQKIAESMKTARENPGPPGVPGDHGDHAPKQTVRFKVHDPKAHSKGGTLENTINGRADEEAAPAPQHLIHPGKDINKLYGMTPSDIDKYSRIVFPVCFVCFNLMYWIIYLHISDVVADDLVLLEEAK
Method: (§1) cRNAs were in vitro synthesized from linearized plasmids using the M-message M-machine transcription kit (Thermo Fisher, Waltham, MA USA) following the manufacturer’s instructions. The cRNA concentration was adjusted to 1 µg/µL. Preparation and injection of X. laevis oocytes were completed as previously described. The oocytes were injected with 30 nL of a solution containing the cRNA of interest. Injected oocytes were maintained at 19 °C in a survival solution containing (in mM): NaCl, 96; KCl, 2; CaCl2, 1.8; MgCl2, 1; Hepes, 5; Na-pyruvate, 2.5; and gentamycin, 0.025, pH = 7.2 with NaOH, renewed daily.
(§2) Expressed currents were recorded at room temperature using the two-electrode voltage-clamp method 1–3 days after injection. Electrodes were pulled from borosilicate glass (Warner, ref GC150T10) and filled with 3 M KCl. […] Drugs were applied using a gravity-driven perfusion system at a speed of 2 mL/min.
(§3) Oocytes were perfused with the following ND solution (in mM): NaCl, 96; KCl, 3; CaCl2, 0.5; MgCl2, 1; HEPES, 5, with pH set at 7.4 with NaOH at ~1 mL/min. The reversal potential of the Ap-RDL receptor was measured in solutions containing (in mM): NaCl, Na-acetate or TEACl (tetraethylammonium chloride), 100; HEPES, 5 with pH set at 7.4, with NaOH or TEAOH. […] Fipronil or picrotoxin were dissolved at the final concentrations from stock solutions in DMSO (dimethylsulfoxide) at 200 and 10 mM, respectively. The final DMSO concentration was always less than 0.2%.
(§4) With Rel.Cur. the current amplitude at each concentration relative to the current recorded in the absence of antagonist; IC50, the concentration for half-maximum inhibition, log ([Inhib]) the logarithm of the inhibitor concentration, and p a slope factor.
(§5) With t, the time of the recording; Rel.Cur., the current amplitude at each concentration relative to the current recorded in the absence of antagonist; Amp, the amplitude of the exponential, Tau Block, the time constant of the exponential, and R the residual non-inhibited current at the steady-state of the effects. The relative block (Rel.B) is estimated as 1-R expressed in %.

A. pisum RDL1bd = conditions: text prints the receptor as Ap-RDL1; read-out: IC50 for fipronil; cited from earlier work
Ap-RDL1 GABAr = target: T2, Ap-RDL1 GABAr (Acyrthosiphon pisum, UniProt A0A385J708, C18R); assay: Two-electrode voltage-clamp of GABA-induced currents, Ap-RDL1 expressed in Xenopus laevis oocytes; type: cell-based
T2 sequence (A0A385J708 33-567 C18R): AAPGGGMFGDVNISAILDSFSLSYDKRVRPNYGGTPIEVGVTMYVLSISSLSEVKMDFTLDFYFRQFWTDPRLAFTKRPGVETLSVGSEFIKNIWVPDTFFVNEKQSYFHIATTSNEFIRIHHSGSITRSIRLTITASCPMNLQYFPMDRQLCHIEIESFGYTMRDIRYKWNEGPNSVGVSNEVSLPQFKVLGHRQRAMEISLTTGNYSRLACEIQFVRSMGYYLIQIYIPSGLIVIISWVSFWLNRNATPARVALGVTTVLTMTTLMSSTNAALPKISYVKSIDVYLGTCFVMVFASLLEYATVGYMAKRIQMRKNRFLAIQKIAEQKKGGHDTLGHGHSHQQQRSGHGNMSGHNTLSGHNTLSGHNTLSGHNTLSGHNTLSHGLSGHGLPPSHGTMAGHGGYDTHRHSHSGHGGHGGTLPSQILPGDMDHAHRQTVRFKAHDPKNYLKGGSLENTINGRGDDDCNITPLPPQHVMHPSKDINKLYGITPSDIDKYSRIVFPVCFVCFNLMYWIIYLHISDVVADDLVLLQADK
Method: as §1, §2, §3, §4, §5

Vd-RDL1 GABAr = target: T3, Vd-RDL1 GABAr (Varroa destructor, UniProt A0A343W7T5); assay: Two-electrode voltage-clamp of GABA-induced currents, Vd-RDL1 expressed in Xenopus laevis oocytes; type: cell-based
T3 sequence (A0A343W7T5 35-585): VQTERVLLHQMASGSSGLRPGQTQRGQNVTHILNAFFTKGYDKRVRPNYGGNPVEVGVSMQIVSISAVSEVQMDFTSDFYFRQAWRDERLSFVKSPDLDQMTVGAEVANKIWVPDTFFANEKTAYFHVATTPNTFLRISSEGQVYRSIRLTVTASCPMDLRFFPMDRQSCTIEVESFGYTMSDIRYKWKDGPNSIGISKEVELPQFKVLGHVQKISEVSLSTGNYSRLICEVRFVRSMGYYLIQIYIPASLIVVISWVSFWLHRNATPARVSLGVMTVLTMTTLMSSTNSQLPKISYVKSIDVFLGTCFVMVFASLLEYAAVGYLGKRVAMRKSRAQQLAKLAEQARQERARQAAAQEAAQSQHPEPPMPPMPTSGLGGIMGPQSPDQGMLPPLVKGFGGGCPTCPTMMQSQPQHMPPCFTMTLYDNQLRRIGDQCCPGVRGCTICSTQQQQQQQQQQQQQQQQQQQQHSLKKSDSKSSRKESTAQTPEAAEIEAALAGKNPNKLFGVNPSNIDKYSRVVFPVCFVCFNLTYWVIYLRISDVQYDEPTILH
Method: as §1, §2, §3, §4, §5

A. pisum RDL2b = conditions: text prints the receptor as Ap-RDL2; read-out: IC50 for fipronil; cited from earlier work
A. pisum RDL1ad = conditions: read-out: IC50 for fipronil; cited from earlier work
Vd-RDL3 GABAr = target: T4, Vd-RDL3 GABAr (Varroa destructor, UniProt A0A343W7T7); assay: Two-electrode voltage-clamp of GABA-induced currents, Vd-RDL3 expressed in Xenopus laevis oocytes; type: cell-based
T4 sequence (A0A343W7T7 31-591): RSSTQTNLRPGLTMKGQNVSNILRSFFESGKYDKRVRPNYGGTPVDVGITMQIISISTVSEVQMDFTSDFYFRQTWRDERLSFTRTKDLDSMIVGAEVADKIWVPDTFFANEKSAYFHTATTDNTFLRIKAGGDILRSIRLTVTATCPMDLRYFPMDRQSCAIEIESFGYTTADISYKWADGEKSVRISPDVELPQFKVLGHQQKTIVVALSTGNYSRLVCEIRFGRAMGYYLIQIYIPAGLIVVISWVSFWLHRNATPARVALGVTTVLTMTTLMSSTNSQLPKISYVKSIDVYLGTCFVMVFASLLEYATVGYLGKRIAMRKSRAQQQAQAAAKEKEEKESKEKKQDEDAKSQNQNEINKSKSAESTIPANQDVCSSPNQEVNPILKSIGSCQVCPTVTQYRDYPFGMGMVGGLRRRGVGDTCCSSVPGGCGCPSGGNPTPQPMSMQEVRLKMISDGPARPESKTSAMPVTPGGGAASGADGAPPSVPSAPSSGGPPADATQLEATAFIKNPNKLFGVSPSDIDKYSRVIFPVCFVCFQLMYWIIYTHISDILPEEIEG
Method: as §1, §2, §3, §4, §5

[1] = target: T5, Hs-α2β2γ2 GABA-A receptor (Homo sapiens, UniProt P18507+P47869+P47870); assay: cell-based; type: cell-based
T5 construct: expressed in transfected cells; host or cells: Xenopus laevis oocytes (cRNA injection)
T5 sequence (P47869 29-451): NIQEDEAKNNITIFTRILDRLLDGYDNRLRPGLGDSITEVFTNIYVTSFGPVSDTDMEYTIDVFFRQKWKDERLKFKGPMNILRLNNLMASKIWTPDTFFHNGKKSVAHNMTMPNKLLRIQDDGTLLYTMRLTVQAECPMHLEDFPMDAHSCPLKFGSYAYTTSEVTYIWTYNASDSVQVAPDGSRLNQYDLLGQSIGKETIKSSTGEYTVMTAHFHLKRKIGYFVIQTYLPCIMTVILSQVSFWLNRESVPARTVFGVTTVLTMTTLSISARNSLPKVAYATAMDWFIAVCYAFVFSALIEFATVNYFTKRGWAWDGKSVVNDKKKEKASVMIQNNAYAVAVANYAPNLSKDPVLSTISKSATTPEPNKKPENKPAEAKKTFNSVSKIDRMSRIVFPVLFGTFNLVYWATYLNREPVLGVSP
T5 sequence (P47870 25-512 limits assumed): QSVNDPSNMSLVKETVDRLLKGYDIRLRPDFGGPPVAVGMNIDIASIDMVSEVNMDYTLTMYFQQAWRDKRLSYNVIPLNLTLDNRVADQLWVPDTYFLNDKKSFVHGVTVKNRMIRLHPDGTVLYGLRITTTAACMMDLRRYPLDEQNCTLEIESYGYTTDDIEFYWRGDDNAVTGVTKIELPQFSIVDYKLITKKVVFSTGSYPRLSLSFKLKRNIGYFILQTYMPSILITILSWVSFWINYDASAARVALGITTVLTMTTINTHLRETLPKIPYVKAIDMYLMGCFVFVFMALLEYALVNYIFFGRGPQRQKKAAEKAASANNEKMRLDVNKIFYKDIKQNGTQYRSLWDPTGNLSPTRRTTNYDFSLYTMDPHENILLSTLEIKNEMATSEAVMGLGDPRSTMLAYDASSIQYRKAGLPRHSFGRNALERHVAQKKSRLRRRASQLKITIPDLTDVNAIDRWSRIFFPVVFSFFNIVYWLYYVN
T5 sequence (P18507 40-475): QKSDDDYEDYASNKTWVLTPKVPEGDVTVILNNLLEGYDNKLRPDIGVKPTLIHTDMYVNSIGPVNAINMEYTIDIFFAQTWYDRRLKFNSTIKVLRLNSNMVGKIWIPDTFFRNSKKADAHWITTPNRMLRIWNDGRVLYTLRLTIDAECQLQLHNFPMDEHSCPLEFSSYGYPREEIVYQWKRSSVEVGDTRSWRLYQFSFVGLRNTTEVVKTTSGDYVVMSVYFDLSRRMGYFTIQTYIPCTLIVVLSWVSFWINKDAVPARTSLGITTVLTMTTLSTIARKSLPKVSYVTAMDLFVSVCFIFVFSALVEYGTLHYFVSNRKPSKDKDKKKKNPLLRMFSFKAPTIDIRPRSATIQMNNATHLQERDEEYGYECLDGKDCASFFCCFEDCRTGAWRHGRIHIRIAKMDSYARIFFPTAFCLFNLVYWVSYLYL
Method: as §1, §2, §3, §4, §5

Hs-α1β2γ2 = conditions: read-out: IC50 for fipronil; cited from earlier work
Vd-RDL2 GABAr = target: T6, Vd-RDL2 GABAr (Varroa destructor, UniProt A0A3G3MDS2); assay: Two-electrode voltage-clamp of GABA-induced currents, Vd-RDL2 expressed in Xenopus laevis oocytes; type: cell-based
T6 sequence (A0A3G3MDS2 20-661): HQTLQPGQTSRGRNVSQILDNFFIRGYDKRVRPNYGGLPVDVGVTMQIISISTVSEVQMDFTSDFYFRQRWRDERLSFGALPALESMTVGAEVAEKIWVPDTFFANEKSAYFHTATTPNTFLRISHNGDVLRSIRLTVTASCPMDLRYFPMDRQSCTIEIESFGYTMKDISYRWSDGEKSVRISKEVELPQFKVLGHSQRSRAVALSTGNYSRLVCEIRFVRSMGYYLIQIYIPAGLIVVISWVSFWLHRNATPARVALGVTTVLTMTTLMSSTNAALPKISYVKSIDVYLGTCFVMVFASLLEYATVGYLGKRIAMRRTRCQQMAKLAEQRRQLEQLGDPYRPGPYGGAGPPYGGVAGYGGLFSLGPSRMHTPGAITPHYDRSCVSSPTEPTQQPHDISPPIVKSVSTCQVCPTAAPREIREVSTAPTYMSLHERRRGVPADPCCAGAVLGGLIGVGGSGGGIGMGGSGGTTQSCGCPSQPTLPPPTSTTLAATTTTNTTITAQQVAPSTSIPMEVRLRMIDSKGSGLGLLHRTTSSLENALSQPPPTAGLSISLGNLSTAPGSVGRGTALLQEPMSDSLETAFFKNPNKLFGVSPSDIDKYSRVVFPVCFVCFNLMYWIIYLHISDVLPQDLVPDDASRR
Method: as §1, §2, §3, §4, §5

[2] = target: T7, Hs-α4β2γ2 GABA-A receptor (Homo sapiens, UniProt P18507+P47870+P48169); assay: Two-electrode voltage-clamp of GABA-induced currents, Hs-α4β2γ2 expressed in Xenopus laevis oocytes; type: cell-based
T7 construct: expressed in transfected cells; host or cells: Xenopus laevis oocytes (cRNA injection; α4 in pcDNA3.1(+))
T7 sequence (P48169 36-554): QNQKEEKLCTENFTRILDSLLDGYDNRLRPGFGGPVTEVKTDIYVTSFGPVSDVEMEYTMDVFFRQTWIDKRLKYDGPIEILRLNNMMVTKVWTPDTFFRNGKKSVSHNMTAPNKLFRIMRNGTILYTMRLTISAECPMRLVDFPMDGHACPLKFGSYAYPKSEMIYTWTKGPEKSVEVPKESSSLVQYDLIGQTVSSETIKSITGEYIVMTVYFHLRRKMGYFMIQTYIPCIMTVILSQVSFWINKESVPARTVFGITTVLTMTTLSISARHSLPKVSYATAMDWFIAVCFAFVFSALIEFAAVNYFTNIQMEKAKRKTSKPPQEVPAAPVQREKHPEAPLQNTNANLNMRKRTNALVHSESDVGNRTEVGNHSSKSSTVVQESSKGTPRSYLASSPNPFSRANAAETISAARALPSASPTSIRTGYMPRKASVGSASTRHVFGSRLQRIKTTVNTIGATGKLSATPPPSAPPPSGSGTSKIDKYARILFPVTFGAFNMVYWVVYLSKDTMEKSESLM
T7 sequence (P47870 25-512 limits assumed): as the sequence (P47870 25-512 limits assumed) above
T7 sequence (P18507 40-475): as the sequence (P18507 40-475) above
Method: as §1, §2, §3, §4
as §5, with “The relative block (Rel.B) is estimated as 1-R expressed in %.” left out

[3] = IC50 (inhibition of the GABA response), GABA 100 µM, inhibitor co-applied
[4] = dieldrin 1 µM, GABA 100 µM, mono-exponential fit
[5] = peak current, oocytes clamped at −60 mV

N#Cc1nn(-c2c(Cl)cc(C(F)(F)F)cc2Cl)c(N)c1[S+]([O-])C(F)(F)F (centres unmarked) [fipronil]
IC50 (Am-RDL GABAr): 70 ± 200 nM | IC50 (A. pisum RDL1bd): 180 ± 100 nM | IC50 (Ap-RDL1 GABAr; [3]): 310 nM and 300 to 3000 nM | IC50 (Vd-RDL1 GABAr): > 500000 nM | block of GABA response by fipronil (Vd-RDL1 GABAr; fipronil 30 µM, GABA 100 µM): almost no block | IC50 (A. pisum RDL2b): 720 ± 200 nM | IC50 (A. pisum RDL1ad): 640 ± 150 nM | IC50 (Vd-RDL3 GABAr): 3640 ± 1740 nM | IC50 [1, 3]: 1880 nM and 300 to 3000 nM and 1800 nM | IC50 (Hs-α1β2γ2): 1100 ± 200 nM | IC50 (Vd-RDL2 GABAr; [3]): 770 nM and 300 to 3000 nM

ClC1=C(Cl)[C@]2(Cl)[C@@H]3[C@@H]4C[C@@H]([C@H]5O[C@@H]45)[C@@H]3[C@@]1(Cl)C2(Cl)Cl [dieldrin]
Rel.B (steady-state relative block) (Am-RDL GABAr; dieldrin 1 µM, GABA 100 µM): 80–91% | Tau-Block (time constant of block) (Am-RDL GABAr; [4]): 2 to 6 min | time to reach steady-state inhibition during successive pulses at the same dose (Ap-RDL1 GABAr; Figure 6B, dieldrin 1 µM, GABA 50 µM): more than 10 min | Tau-Block (time constant of block) (Ap-RDL1 GABAr; dieldrin 1 µM, repetitive GABA application, mono-exponential fit): 2 to 6 min | Rel.B (steady-state block) (Vd-RDL1 GABAr; dieldrin 1 µM, GABA 300 µM): ~20% | Tau-Block (time constant of block) (Vd-RDL1 GABAr; dieldrin 1 µM, GABA 300 µM, hard to evaluate, fitted): around 55 min | Rel.B (steady-state relative block) ([2]; dieldrin 1 µM, GABA 100 µM): 80–91% | Tau-Block (time constant of block) [2, 4]: 2 to 6 min | Rel.B (steady-state relative block) (Vd-RDL3 GABAr; dieldrin 1 µM, GABA 100 µM): 80–91% | Tau-Block (time constant of block) (Vd-RDL3 GABAr; [4]): 2 to 6 min | Rel.B (steady-state relative block) ([1]; dieldrin 1 µM, GABA 300 µM): 80–91% | Tau-Block (time constant of block) ([1]; dieldrin 1 µM, GABA 300 µM, mono-exponential fit): 2 to 6 min | Rel.B (steady-state relative block) (Vd-RDL2 GABAr; dieldrin 1 µM, GABA 100 µM): 51 ± 1% | Tau-Block (time constant of block) (Vd-RDL2 GABAr; [4]): 2 to 6 min

picrotoxin
sensitivity to picrotoxin (Vd-RDL1 GABAr; GABA 100 µM): insensitive | block of GABA response by picrotoxin (Vd-RDL1 GABAr; picrotoxin 100 µM, GABA 100 µM): 20% | IC50 (Vd-RDL1 GABAr; read-out: IC50 (inhibition of the GABA response), GABA 100 µM, inhibitor co-applied): > 500000 nM

NCCCC(=O)O [GABA, γ-aminobutyric acid]
EC50 (Am-RDL GABAr): 19300 ± 3500 nM | p (slope factor) of GABA dose–response curve (Am-RDL GABAr; logistic fit): 2.1 ± 0.2 | p (slope factor) of GABA dose–response curve (Ap-RDL1 GABAr; logistic fit): 2.4 ± 0.3 | p (slope factor) of GABA dose–response curve (Vd-RDL1 GABAr; logistic fit): 2.3 ± 0.2 | EC50 (Vd-RDL1 GABAr; [5]): 269000 ± 41000 nM | p (slope factor) of GABA dose–response curve ([2]; logistic fit): 1.4 ± 0.2 | p (slope factor) of GABA dose–response curve (Vd-RDL3 GABAr; logistic fit): 2.3 ± 0.1 | EC50 (Vd-RDL3 GABAr; [5]): 43100 ± 10400 nM | p (slope factor) of GABA dose–response curve [1]: 1.4 ± 0.1 | p (slope factor) of GABA dose–response curve (Vd-RDL2 GABAr; logistic fit): 1.8 ± 0.2
